Experimental data from PubChem BioAssay (NCI).
“And” between values parts separate entries of the source, which are not always exact repeats. Identical values can stand only once.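 All cell lines were grown in 96-well plates and treated with compound for 48 hours. GI50 is the concentration that inhibits growth by half. At the TGI there is no net growth.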

Columns and labels:
Assay in all cases: NCI anticancer screen, dose series, 48 h
[1] = tested on: UO-31 renal
[2] = tested on: RXF 393 renal
[3] = tested on: OVCAR-3 ovarian
[4] = tested on: NCI-H226 lung
[5] = tested on: KM12 colon
[6] = tested on: OVCAR-5 ovarian
[7] = tested on: SR leukemia
[8] = tested on: M14 melanoma
[9] = tested on: MALME-3M melanoma
[10] = tested on: HCC-2998 colon

Structure (SMILES) | TGI [1] | TGI [2] | TGI [3] | TGI [4] | TGI [5] | TGI [6] | TGI [7] | TGI [8] | TGI [9] [µM] | TGI [10] | GI50 [1] [µM] | GI50 [2] [µM] | GI50 [3] [µM] | GI50 [4] [µM] | GI50 [5] [µM] | GI50 [6] [µM] | GI50 [7] [µM] | GI50 [8] [µM] | GI50 [10] [µM]
CC(C)(C)OC(=O)N(O)CCCn1cnc2c(NC3CC3)ncnc21 | > 100 µM | > 100 µM | > 100 µM | > 100 µM | > 100 µM | > 100 µM | > 100 µM | > 100 µM | > 100 | > 100 µM |  |  |  |  |  |  |  |  | 
CC/C(Cl)=N\OC(=O)Nc1ccc(F)c(Cl)c1 | 32.3 µM | 34.5 µM | 8.03 µM | 51.3 µM | 35 µM | 31.4 µM | 13.1 µM | 23.1 µM | 9.29 | 35.3 µM |  |  |  |  |  |  |  |  | 
COc1ccc(C[C@H]2COC(=O)[C@@H]2Cc2ccc(Br)cc2)cc1OC | 24.2 µM | > 62.8 µM | > 100 µM | > 85.4 µM | > 75.2 µM | > 100 µM | > 94 µM | > 89.5 µM | > 89.5 | > 100 µM |  |  |  |  |  |  |  |  | 
Cc1ccccc1N(CCC#N)C1=NN(C(=O)CC(=O)Nc2ccc(Cl)cc2)C(c2ccccc2)C1 (centres undefined) | > 100 µM | > 100 µM | > 100 µM | > 100 µM | > 100 µM | > 100 µM | > 100 µM | > 100 µM | > 100 | > 100 µM |  |  |  |  |  |  |  |  | 
Cc1cc(-c2nc3cc(F)ccc3s2)ccc1N | 99.4 µM | 52.4 µM | > 68 µM | > 93.6 µM | > 100 µM | > 100 µM | > 100 µM | > 88.8 µM | > 100 | > 100 µM |  |  |  |  |  |  |  |  | 
CN(C)c1n2c3ccc([N+](=O)[O-])cc3n3c(N(C)C)[n+]4ccccc4c3c2c2cccc[n+]12 | > 100 µM | > 100 µM | > 100 µM | > 100 µM | > 100 µM | > 100 µM | > 100 µM | > 100 µM | > 100 | > 100 µM |  |  |  |  |  |  |  |  | 
COc1ccc(/C(C)=C2\CCCN(Cc3ccccc3)C2)cc1 | 44.1 µM | 43.2 µM | 37.4 µM | 63.6 µM | 33.3 µM | > 100 µM | 42.2 µM | 36.7 µM | 34.8 | 44.7 µM |  |  |  |  |  |  |  |  | 
CC1(C)CC(=O)c2c(-c3ccc(Cl)cc3)c(C#N)c(=S)n(C3OC(CO)C(O)C(O)C3O)c2C1 (centres undefined) | 98.8 µM | > 100 µM | 90.7 µM | 73 µM | > 100 µM | > 100 µM | > 100 µM | > 100 µM | > 100 | > 100 µM |  |  |  |  |  |  |  |  | 
OC1C2CCCCN2C[C@@H](O)[C@H]1O (some centres undefined) | > 100 µM | > 100 µM | > 100 µM | > 100 µM | > 100 µM | > 100 µM | > 100 µM | > 100 µM | > 100 | > 100 µM |  |  |  |  |  |  |  |  | 
COc1ccc2nc3ccc(OC)cc3c(S(=O)Cc3ccccc3)c2c1 (centres undefined) | 22.8 µM | > 43.5 µM | 26.1 µM | 38.5 µM | 40.5 µM | 35.3 µM | > 29.8 µM | 30.1 µM | 7.87 | 38.4 µM |  |  |  |  |  |  |  |  | 
Cc1cc(NS(=O)(=O)c2ccc(NO)cc2)no1 | > 100 µM | > 100 µM | > 100 µM | > 100 µM | > 100 µM | > 100 µM | 46.2 µM | > 100 µM | > 100 | > 100 µM |  |  |  |  |  |  |  |  | 
Cn1c2ncccc2n2c(=O)cc(O)cc12 | > 100 µM | 75.5 µM | > 100 µM | > 100 µM | > 100 µM | > 100 µM | > 100 µM | > 100 µM | > 100 | > 100 µM |  |  |  |  |  |  |  |  | 
COC(=O)CN1Cc2cc(C)cc(c2O)CN(CC(=O)OC)Cc2cc(C)cc(c2O)CN(CC(=O)OC)Cc2cc(C)cc(c2O)CN(CC(=O)OC)Cc2cc(C)cc(c2O)C1 | 50 µM and > 100 µM | 28.6 µM and > 100 µM | 32.1 µM and > 100 µM | 47.2 µM and > 100 µM | 50 µM and > 100 µM | 50 µM and > 100 µM | 50 µM and > 100 µM | 18.7 µM and 51.5 µM | 50 | 50 µM and > 100 µM | 33.8 | 36.1 | 5.7 | 11.1 | 50.2 | 5.26 | 18 | 17.7 | 25.2
CN(C)CC1(Cc2ccccc2)CC/C(=C\c2ccccc2)C1=O (centres undefined) | > 100 µM | 92.8 µM | > 100 µM | > 100 µM | > 100 µM | > 100 µM | 60.4 µM | > 100 µM | > 100 | 40.7 µM |  |  |  |  |  |  |  |  | 
Cc1ccc(NC(=O)c2cccc(OP(=O)(Nc3ccc(C)cc3)Nc3ccc(C)cc3)c2)cc1 | 45.3 µM | 6.75 µM | > 100 µM | 63.6 µM | > 100 µM | > 100 µM | 17.1 µM | 9.08 µM | 39.6 | > 100 µM |  |  |  |  |  |  |  |  | 
O=C1c2ccccc2C(=O)c2c1oc1cc(O)c(Cl)cc21 | 26.6 µM | 24.5 µM | 8.52 µM | 34.3 µM | 19.4 µM | 23.9 µM | > 54.6 µM | 6.88 µM | 2.51 | 14.8 µM |  |  |  |  |  |  |  |  | 
